Reference: patent publication US20250188092A1, “RIFAMYCIN ANALOGS” (THE REGENTS OF THE UNIVERSITY OF MICHIGAN, priority 2021, published 2025)
In brackets after ≈: the same amount, converted by molar mass.

Experiments:
DPX2 cells = settings: for DPX2 Viability @ 6.25 μM: 24 h; for DPX2 Viability @ 25 μM: human
VERO cells (ATCC CRL-81) = assay: Vero cell toxicity; assay type: cell-based; settings: Chlorocebus sabaeus, Vero; 72 hours exposure
Description: Cytotoxicity for a mammalian cell line was determined by exposing VERO cells (ATCC CRL-81) to serial dilutions of test compounds for 72 hours, followed by addition of resazurin and measurement of fluorescence after 4 hours incubation (Choules, et al., Antimnicrob. Agents Chemother. 2019, 63, e02204-02218).

MTB H37Rv ATCC 27294 = assay: MIC, microplate Alamar Blue assay (MABA); assay type: cell-based, Mycobacterium tuberculosis; settings: for MIC90: Mycobacterium tuberculosis, MTB H37Rv ATCC 27294, microplate Alamar Blue assay, lowest concentration giving ≥90% reduction in fluorescence

Structure (SMILES)	DPX2 Viability @ 6.25 μM (DPX2 cells)	DPX2 Viability @ 25 μM (DPX2 cells)	IC50 (VERO cells (ATCC CRL-81))	MIC90 MABA Rel to RMP (MTB H37Rv ATCC 27294)	MIC90 (MTB H37Rv ATCC 27294)
CO[C@H]1/C=C/O[C@@]2(C)Oc3c(C)c(O)c4c(=O)c(c5oc6cc(N7CCC(C(=O)O)CC7)cc(C)c6nc-5c4c3C2=O)NC(=O)/C(C)=C\C=C\[C@H](C)[C@H](O)[C@@H](C)[C@@H](O)[C@@H](C)[C@H](OC(C)=O)[C@@H]1C [Compound 29f, 1-[(7S,9E,11S,12R,13S,14R,15R,16R,17S,18S,19E,21Z)-13-(acetyloxy)-2,15,17-trihydroxy-11-methoxy-3,7,12,14,16,18,22,32-octamethyl-6,23,37-trioxo-8,27,38-trioxa-24,34-diazahexacyclo-[23.11.1.1^4,7.0^5,36.0^26,35.0^28,33]octatriaconta-1,3,5(36)9,19,21,25,28,30,32,34-undecaen-30-yl]piperidine-4-carboxylic acid]	126%	131%	> 10 µM	8.9	0.238 µM (≈ 0.22 µg/mL)
CO[C@H]1/C=C/O[C@@]2(C)Oc3c(C)c(O)c4c(=O)c(c5oc6cc(N7CCC(CC(=O)O)CC7)cc(C)c6nc-5c4c3C2=O)NC(=O)/C(C)=C\C=C\[C@H](C)[C@H](O)[C@@H](C)[C@@H](O)[C@@H](C)[C@H](OC(C)=O)[C@@H]1C [Compound 29g, 2-{4-[(7S,9E,11S,12R,13S,14R,15R,16R,17S,18S,19E,21Z)-13-(acetyloxy)-2,15,17-trihydroxy-11-methoxy-3,7,12,14,16,18,22,32-octamethyl-6,23,37-trioxo-8,27,38-trioxa-24,34-diazahexacyclo[23.11.1.1^4,7.0^5,36.0^26,35.0^28,33]octatriaconta-1,3,5(36)9,19,21,25,28,30,32,34-undecaen-30-yl]piperidin-4-yl}acetic acid]	100%	101%	> 10 µM	1.9	0.051 µM (≈ 0.0479 µg/mL)
CO[C@H]1/C=C/O[C@@]2(C)Oc3c(C)c(O)c4c(=O)c(c5oc6cc(N7CCN(CC(=O)O)CC7)cc(C)c6nc-5c4c3C2=O)NC(=O)/C(C)=C\C=C\[C@H](C)[C@H](O)[C@@H](C)[C@@H](O)[C@@H](C)[C@H](OC(C)=O)[C@@H]1C [Compound 29h, 2-{4-[(7S,9E,11S,12R,13S,14R,15R,16R,17S,18S,19E,21Z)-13-(acetyloxy)-2,15,17-trihydroxy-11-methoxy-3,7,12,14,16,18,22,32-octamethyl-6,23,37-trioxo-8,27,38-trioxa-24,34-diazahexacyclo[23.11.1.1^4,7.0^5,36.0^26,35.0^28,33]octatriaconta-1,3,5(36)9,19,21,25,28,30,32,34-undecaen-30-yl]piperazin-1-yl}acetic acid]	109%	98%	> 10 µM	0.69	0.018 µM (≈ 0.0169 µg/mL)
CO[C@H]1/C=C/O[C@@]2(C)Oc3c(C)c(O)c4c(=O)c(c5oc6cc(C)cc(N7CCN(CCn8ccnc8)CC7)c6nc-5c4c3C2=O)NC(=O)/C(C)=C\C=C\[C@H](C)[C@H](O)[C@@H](C)[C@@H](O)[C@@H](C)[C@H](OC(C)=O)[C@@H]1C [Compound 30e, (7S,9E,11S,12R,13S,14R,15R,16R,17S,18S,19E,21Z)-2,15,17-Trihydroxy-32-{4-[3-(1H-imidazol-1-yl)ethyl]piperazin-1-yl}-11-methoxy-3,7,12,14,16,18,22,30-octamethyl-6,23,37-trioxo-8,27,38-trioxa-24,34-diazahexacyclo[23.11.1.1^4,7.0^5,36.0^26,35.0^28,33]octatriaconta-1(36)2,4,9,19,21,25,28,30,32,34-undecaen-13-yl acetate]	130%	119%	> 10 µM	3.11	0.084 µM
